From patent publication US11390622B2, “Pyrimido-isoquinolin-quinone derivative compounds, and pharmaceutically acceptable salts, isomers and tautomers thereof; pharmaceutical composition; preparation method; and use thereof in the treatment of diseases caused by bacteria and multidrug-resistant bacteria” (Universidad de Chile, priority 2015, dated 2022)
≈ marks a conversion by molar mass, not a printed value. Read-outs that look alike come from different tables or passages of the source.

How the values were obtained:
[1] = system: Enterococcus faecalis ATCC 29212; assay: CIM antibacterial activity screening (broth microdilution); assay type: cell-based
Method: (§1) These compounds were tested for their in vitro activity (Screening Antibacterial Activity CIM (μg/mL)) and the results are shown in Table II.
(§2) Bacteria used: A panel of prototype strains was used to screen for antibacterial activity in the compounds: • Methicillin-resistant Staphylococcus aureus ATCC© 43300. • Methicillin-sensitive Staphylococcus aureus ATCC© 29213. • Enterococcus faecalis ATCC© 29212. • Escherichia coli ATCC© 25922. • Pseudomonas aeruginosa ATCC© 27853.
(§3) The strains were planted from the ceparium (where they were preserved in 50% v/v glycerol and Brain Heart Infusion culture broth, at −20° C.) in Mueller-Hinton agar (Oxoid, England).
(§4) The concentrations to be tested ranged from 32 to 0.0625 μg/mL. The wells in columns 11 and 12 were used for positive growth control and sterility control respectively.
(§5) Once the plate was prepared, 100 uL of the bacterial suspension to be tested were added, previously adjusted to 0.5 Mc Farland, in each of the wells, excluding the wells in column 12. Finally, the plates were covered and incubated at 36° C. for 18 to 24 hours. Then, the plates were observed using contrast light to determine the concentration at which bacterial growth is inhibited (indicated by the disappearance of turbidity).
(§6) All trials were conducted three times, and results were considered valid if the internal controls of each plate (growth and sterility controls) were adequate. MIC antibiotic control (ciprofloxacin, gentamicin and vancomycin) was assessed and contrasted with the permitted quality control ranges given by CLSI. If the MIC detected in the trial was within the permitted ranges, the trial was accepted as valid.

[2] = system: Eschericha coli ATCC 25922; assay: as above; assay type: cell-based; settings: Escherichia coli
Method: as §1, §2, §3, §4, §5, §6

[3] = system: Methicillin resistant Staphylococcus aureus ATCC 43300; assay: as above; assay type: cell-based
Method: as §1, §2, §3, §4, §5, §6

[4] = system: Methicillin sensitive Staphylococcus aureus ATCC 29213; assay: as above; assay type: cell-based
Method: as §1, §2, §3, §4, §5, §6

[5] = system: Pseudomona aeruginosa ATCC 27853; assay: as above; assay type: cell-based; settings: Pseudomonas aeruginosa
Method: as §1, §2, §3, §4, §5, §6

[6] = Enterococcus faecalis, ATCC29212, read-out: CIM
[7] = Staphylococcus aureus, ATCC43300, read-out: CIM
[8] = Staphylococcus aureus, ATCC29213, read-out: CIM
[9] = ATCC29212, Enterococcus faecalis ATCC 29212, read-out: CIM
[10] = ATCC25922, Eschericha coli ATCC 25922, read-out: CIM
[11] = ATCC43300, Methicillin resistant Staphylococcus aureus ATCC 43300, read-out: CIM
[12] = ATCC29213, Methicillin sensitive Staphylococcus aureus ATCC 29213, read-out: CIM
[13] = ATCC27853, Pseudomona aeruginosa ATCC 27853, read-out: CIM

Compound	MIC [1, 6] [µg/mL]	MIC ([2]; ATCC25922, read-out: CIM) [µg/mL]	MIC [3, 7] [µg/mL]	MIC [4, 8] [µg/mL]	MIC ([5]; ATCC27853, read-out: CIM) [µg/mL]	melting point [°C]	MIC [1, 9] [µg/mL]	MIC [2, 10] [µg/mL]	MIC [3, 11] [µg/mL]	MIC [4, 12] [µg/mL]	MIC [5, 13] [µg/mL]
CCc1nc2c(c3c1C(=O)C(Sc1ccccc1)=CC3=O)c(=O)n(C)c(=O)n2C [Molecule 2, 6-ethyl-2,4-dimethyl-8-(phenythio)pyrimido[4,5-c]isoquinoline-1,3,7,10(2H,4H)-tetraone]	8 (≈ 19.6 µM)	≥ 32	8 (≈ 19.6 µM)	8 (≈ 19.6 µM)	≥ 32	179.4 to 180	–	–	–	–	–
CCc1nc2c(c3c1C(=O)C(Sc1cccc(F)c1)=CC3=O)c(=O)n(C)c(=O)n2C [Molecule 10, 6-ethyl-8-(3-fluorothiophenyl)-2,4-dimethylpyrimido[4,5-c]isoquinoline-1,3,7,10(2H,4H)-tetraone]	–	–	–	–	–	170 to 171	8 (≈ 18.8 µM)	≥ 32	4 (≈ 9.4 µM)	4 (≈ 9.4 µM)	≥ 32
CCc1nc2c(c3c1C(=O)C(Sc1ccccc1Br)=CC3=O)c(=O)n(C)c(=O)n2C [Molecule 7, 8-((2-bromophenyl)thio)-6-ethyl-2,4-dimethylpyrimido[4,5-c]isoquinoline-1,3,7,10(2H,4H)-tetraone]	–	–	–	–	–	–	2 (≈ 4.11 µM)	≥ 32	1 (≈ 2.06 µM)	4 (≈ 8.22 µM)	≥ 32
CCc1nc2c(c3c1C(=O)C=CC3=O)c(=O)n(C)c(=O)n2C [Molecule 1, 6-ethyl-2,4-dimethylpyrimido[4,5-c]isoquinoline-1,3,7,10(2H,4H)-tetraone]	–	–	–	–	–	167.6 to 167.9	> 32	> 32	≥ 32	≥ 32	> 32
CCc1nc2c(c3c1C(=O)C(Sc1ccccc1Cl)=CC3=O)c(=O)n(C)c(=O)n2C [Molecule 6, 8-((2-chlorophenyl)thio)-6-ethyl-2,4-dimethyl pyrimido[4,5-c]isoquinoline-1,3,7,10(2H,4H)-tetraone]	≥ 32	≥ 32	≥ 32	≥ 32	≥ 32	–	–	–	–	–	–
CCc1nc2c(c3c1C(=O)C(Sc1ccc(Cl)cc1)=CC3=O)c(=O)n(C)c(=O)n2C [Molecule 16, 8-(4-chlorothiophenyl)-6-ethyl-2,4-dimethylpyrimido[4,5-c]isoquinoline-1,3,7,10(2H, 4H)-tetraone]	4 (≈ 9.05 µM)	≥ 32	4 (≈ 9.05 µM)	4 (≈ 9.05 µM)	≥ 32	196.5 to 198.3	–	–	–	–	–
CCc1nc2c(c3c1C(=O)C(Sc1cccc(OC)c1)=CC3=O)c(=O)n(C)c(=O)n2C [Molecule 9, 6-ethyl-8-(3-methoxythiophenyl)-2,4-dimethylpyrimido[4,5-c]isoquinoline-1,3,7,10(2H,4H)-tetraone]	–	–	–	–	–	179.5 to 180.5	4 (≈ 9.14 µM)	≥ 32	4 (≈ 9.14 µM)	8 (≈ 18.3 µM)	≥ 32
CCc1nc2c(c3c1C(=O)C(Sc1cccc(C)c1)=CC3=O)c(=O)n(C)c(=O)n2C [Molecule 8, 6-ethyl-2,4-dimethyl-8-(m-tolylthio)pyrimido[4,5c]isoquinoline-1,3,7,10(2H,4H)-tetraone]	–	–	–	–	–	162 to 163	4 (≈ 9.49 µM)	≥ 32	4 (≈ 9.49 µM)	4 (≈ 9.49 µM)	≥ 32
CCc1nc2c(c3c1C(=O)C(Sc1cccc(Br)c1)=CC3=O)c(=O)n(C)c(=O)n2C [Molecule 12, 8-(3-bromothiophenyl)-6-ethyl-2,4-dimethylpyrimido[4,5-c]isoquinoline-1,3,7,10(2, 4H)-tetraone]	–	–	–	–	–	138.3 to 139.3	4 (≈ 8.22 µM)	≥ 32	2 (≈ 4.11 µM)	32 (≈ 65.8 µM)	≥ 32
CCc1nc2c(c3c1C(=O)C(Sc1cccc(Cl)c1)=CC3=O)c(=O)n(C)c(=O)n2C [Molecule 11, 8-(3-chlorothiophenyl)-6-ethyl-2,4-dimethylpyrimido[4,5-c]isoquinoline-1,3,7,10(2H,4H)-tetraone]	–	–	–	–	–	156.1 to 157.1	4 (≈ 9.05 µM)	≥ 32	2 (≈ 4.53 µM)	32 (≈ 72.4 µM)	≥ 32
CCc1nc2c(c3c1C(=O)C(Sc1ccccc1C)=CC3=O)c(=O)n(C)c(=O)n2C [Molecule 3, 6-ethyl-2,4-dimethyl-8-(o-tolylthio)pyrimido[4,5-c]isoquinoline-1,3,7,10(2H,4H)-tetraone]	–	–	–	–	–	206 to 210.9	≥ 32	≥ 32	32 (≈ 75.9 µM)	32 (≈ 75.9 µM)	≥ 32
CCc1nc2c(c3c1C(=O)C(Sc1ccccc1F)=CC3=O)c(=O)n(C)c(=O)n2C [Molecule 5, 6-ethyl-8-((2-fluorophenyl)thio)-2,4-dimethyl pyrimido[4,5-c]isoquinoline-1,3,7,10(2H, 4H)-tetraone]	–	–	–	–	–	–	≥ 32	≥ 32	≥ 32	≥ 32	≥ 32
CCc1nc2c(c3c1C(=O)C(Sc1ccc(Br)cc1)=CC3=O)c(=O)n(C)c(=O)n2C [Molecule 17, 8-(4-bromothiophenyl)-6-ethyl-2,4-dimethylpyrimido[4,5-c]isoquinoline-1,3,7,10(2H,4H)-tetraone]	–	–	–	–	–	197.9 to 198.7	8 (≈ 16.4 µM)	≥ 32	4 (≈ 8.22 µM)	8 (≈ 16.4 µM)	≥ 32
CCc1nc2c(c3c1C(=O)C(Sc1ccc(C)cc1)=CC3=O)c(=O)n(C)c(=O)n2C [Molecule 13, 6-ethyl-2,4-dimethyl-8-(p-tolylthio)pyrimido[4,5-c]isoquinoline-1,3,7,10(2H,4H)-tetraone]	–	–	–	–	–	191 to 192.3	16 (≈ 38 µM)	≥ 32	4 (≈ 9.49 µM)	4 (≈ 9.49 µM)	≥ 32
CCc1nc2c(c3c1C(=O)C(Sc1ccc(F)cc1)=CC3=O)c(=O)n(C)c(=O)n2C [Molecule 15, 6-ethyl-8-(4-fluorothiophenyl)-2,4-dimethylpyrimido[4,5-c]isoquinoline-1,3,7,10(2H, 4H)-tetraone]	–	–	–	–	–	194.9 to 195.4	8 (≈ 18.8 µM)	≥ 32	8 (≈ 18.8 µM)	8 (≈ 18.8 µM)	≥ 32
CCc1nc2c(c3c1C(=O)C(Sc1ccc(OC)cc1)=CC3=O)c(=O)n(C)c(=O)n2C [Molecule 14, 6-ethyl-8-(4-methoxythiophenyl)-2,4-dimethylpyrimido[4,5-c]isoquinoline-1,3,7,10(2H,4H)-tetraone]	–	–	–	–	–	198.9 to 201.5	16 (≈ 36.6 µM)	≥ 32	16 (≈ 36.6 µM)	16 (≈ 36.6 µM)	≥ 32
CCc1nc2c(c3c1C(=O)C(Sc1ccccc1OC)=CC3=O)c(=O)n(C)c(=O)n2C [Molecule 4, 6-ethyl-8-(2-methoxyphenylthio)-2,4-dimethyl pyrimido[4,5-c]isoquinoline-1,3,7,10(2H,4H)-tetraone]	–	–	–	–	–	–	4 (≈ 9.14 µM)	≥ 32	2 (≈ 4.57 µM)	4 (≈ 9.14 µM)	≥ 32
